Experimental findings from US4374136A, “Pyrimidine derivatives” (May & Baker Limited, priority 1980, dated 1983) are described below.

The test system of series [1] is Plasmodium yoelii nigeriensis (strain N67). Nature of the series: Antimalarial activity in mice, Plasmodium yoelii nigeriensis strain N67, oral daily for 4 days. Type of series: in vivo. The note with it: for ED50: Plasmodium yoelii, 504 h, read-out: CD50 (dose required to cure 50% of mice tested). The procedure:
(§1) (a) The test compounds were tested in mice, against Plasmodium yoelii nigeriensis (strain N67), which is sensitive to pyrimethamine, and against a strain of Plasmodium yoelii nigeriensis [strain PR (derived from strain N67)] which is resistant to pyrimethamine, and also against pyrimethamine sensitive Plasmodium berghei (strain N30).
(§2) In the experiments, the mice were each infected intraperitoneally with about 10^6 trophozoites. The test compound was administered orally daily for 4 days, beginning on the day of infection, and peripheral blood smears of the mice were observed 2 or 3 times per week for a total of 21 days. The numbers of mice cured were counted and the dose required to cure 50% of mice tested (CD50) was calculated.

Series [2] deals with Plasmodium yoelii nigeriensis (strain PR). The series can be described thus: Antimalarial activity in mice, pyrimethamine-resistant Plasmodium yoelii nigeriensis strain PR, oral daily for 4 days. Format: in vivo. To be noted: for Number of mice cured: PR; for ED50: Plasmodium yoelii, 504 h, strain PR, oral daily for 4 days from day of infection, 21 days observation, read-out: CD50 (dose required to cure 50% of mice tested). The procedure:
as §1, §2

The subject of series [3] is Plasmodium berghei (strain N30). The series can be described thus: Antimalarial activity in mice, Plasmodium berghei strain N30, oral daily for 4 days. Type of series: in vivo. To be noted: for Number of mice cured: 24 mice tested; for ED50: Plasmodium berghei, 504 h, read-out: CD50 (dose required to cure 50% of mice tested). On the procedure: as §1, §2
For series [4], the system named is Plasmodium yoelii nigeriensis (strain N67). Nature of the series: Single oral dose antimalarial test in mice infected with strain N67. Type of series: in vivo, Plasmodium yoelii nigeriensis; mice. To be noted: for ED50: Plasmodium yoelii. On the procedure: (b) Mice were each infected intraperitoneally with about 10^6 trophozoites of strain N67 of Plasmodium yoelii nigeriensis. […] The numbers of mice cured were counted and the dose required to cure 50% of mice tested (CD50) was calculated.
The results obtained are shown below in Table II, in comparison with a test using pyrimethamine against the same organism.

Series [5] can be described thus: Acute oral toxicity in mice. Format: in vivo. To be noted: mouse, in vivo; single oral dose, mice; read-out: LD50 (dose required to kill 50% of the mice tested). The procedure:
(§3) Mice were treated with a single dose of the compound of formula III by the oral route, and were observed until all survivors had appeared to be healthy for 3 consecutive days. The LD50 dose (dose required to kill 50% of the mice tested) was then calculated.
(§4) In a similar test on reference compound RCA an oral dose of 1000 mg/kg killed 2 out of 5 mice, giving an LD50 figure of […].

For the next series, the system named is mice. Nature of the series: Acute oral toxicity in mice. Type of series: in vivo. To be noted: 5 mice tested. The procedure:
as §3, §4

The test system of the next series is dogs. Nature of the series: Toxicity in dogs, oral. Format: in vivo.
A further series relates to malaria. Nature of the series: Comparative activity against malaria (general statement). Format: in vivo. An excerpt: The properties of the compound of formula III are illustrated by the following laboratory tests.
The mark [6] stands for this setting: 504 h, one single oral dose 48 hours after infection, strain N67, read-out: CD50 (dose required to cure 50% of mice tested).

Where two headings read alike, the source gives them in different places. Bounds are passed on as bounds.

Broadly, the LD50 is the dose at which mortality reaches 50%. As for `Cc1nc(N)nc(N)c1OCCCOc1ccc(-c2ccc(Cl)cc2)cc1` [compound of formula III, 2,4-diamino-5-[3-{4-(4-chlorophenyl)phenoxy}propoxy]-6-methylpyrimidine], the “Number of mice cured” value was determined as 2 mice in series [1] (N67, daily dose 0.125 mg/kg, 32 mice tested); 28 mice in series [1] (N67, daily dose 0.5 mg/kg, 32 mice tested); 31 mice in series [1] (N67, daily dose 2.0 mg/kg, 31 mice tested); 0 mice in series [2] (daily dose 0.2 mg/kg, 16 mice tested); 3 mice in series [2] (daily dose 2.0 mg/kg, 16 mice tested); 15 mice in series [2] (daily dose 20.0 mg/kg, 15 mice tested). The “Number of mice cured” value in series [3] (N30, daily dose 0.125 mg/kg) worked out at 0 mice; in series [3] (N30, daily dose 0.5 mg/kg), 14 mice; in series [3] (N30, daily dose 2.0 mg/kg), 24 mice; in series [4] (single dose 0.2 mg/kg, 48 hours after infection, 8 mice tested), 0 mice; in series [4] (single dose 2.0 mg/kg, 48 hours after infection, 8 mice tested), 1 mice; in series [4] (single dose 20.0 mg/kg, 48 hours after infection, 8 mice tested), 8 mice. For the same compound, the ED50 in series [1] (strain N67, oral daily for 4 days from day of infection, 21 days observation) turned out to be 0.3 mg/kg; in series [2], 3 mg/kg; in series [3] (strain N30, oral daily for 4 days from day of infection, 21 days observation), 0.45 mg/kg; in series [4] (setting [6]) it was 3.5 mg/kg. Also, in series [5], the median lethal dose (LD50) was approximately 1000 mg/kg. Further, the entries for the “Number of mice killed” value in the series with mice (500 mg/kg oral) and in the series on mice (1000 mg/kg oral) were 0 mice and 3 mice, respectively. In addition, the “Number of dogs in which clinically well-tolerated” value with dogs (15 mg/kg/day (highest dosage), 6 dogs) is recorded as 5 dogs. In the series with dogs (oral gelatin capsules, one month, 1, 3 and 9 mg/kg/day), the “Clinical tolerance in dogs” value is reported as “clinically well-tolerated”. In addition, the “Toxicity in dogs in comparison” value in the series with dogs (versus reference compound RCA) is given as “much less toxic in dogs than reference compound RCA”. In addition, the “Antimalarial activity in comparison” value with malaria (sensitive and resistant strains of malaria, versus reference compound RCA) is recorded as “very much more active than reference compound RCA”.

Take `CCc1nc(N)nc(N)c1-c1ccc(Cl)cc1` [pyrimethamine, 2,4-diamino-5-(4-chlorophenyl)-6-ethylpyrimidine]: the ED50 in series [4] (setting [6]) was more than 50 mg/kg. Further, the “Number of mice cured” value in series [4] (dose 5.0 mg/kg, 8 mice tested) is 0 mice; in series [4] (dose 50.0 mg/kg (maximum tolerated dose), 8 mice tested) it was 0 mice.

In the case of `Cc1nc(N)nc(N)c1OCCCOc1ccc(Cl)cc1C1CCCCC1` [reference compound RCA, 2,4-diamino-6-methyl-5-[3-(4-chloro-2-cyclohexylphenoxy)propoxy]pyrimidine, reference compound], the “Number of mice cured” value is on record as 2 mice in series [1] (N67, daily dose 1 mg/kg, 32 mice tested); 17 mice in series [1] (N67, daily dose 5 mg/kg, 32 mice tested); 31 mice in series [1] (N67, daily dose 25 mg/kg, 31 mice tested); 0 mice in series [2] (daily dose 10 mg/kg, 32 mice tested); 32 mice in series [2] (daily dose 100 mg/kg, 32 mice tested); 0 mice in series [3] (N30, daily dose 1 mg/kg). In addition, the “Number of mice cured” value is 5 mice in series [3] (N30, daily dose 10 mg/kg); 24 mice in series [3] (N30, daily dose 100 mg/kg); 2 mice in series [4] (oral dose 200 mg/kg, 24 hours after infection, 8 mice). The ED50 in series [1] (po) is 5 mg/kg; in series [2] it was 30 mg/kg; in series [3] (po), 15 mg/kg; in series [4] (po, 24 h, read-out: CD50), more than 200 mg/kg. The median lethal dose (LD50) in series [5] is approximately 1000 mg/kg. For the same compound, the “Number of mice killed” value in the series with mice (1000 mg/kg oral) worked out at 2 mice. Moreover, the Deaths in dogs entry with dogs (doses higher than 3 mg/kg/day) is reported as “deaths occurring at higher doses”. For the same compound, the “Clinical tolerance in dogs” value with dogs (even at doses of 3 mg/kg/day) was “clinically badly tolerated”. In addition, the “Activity against malaria relative to any of the other 34 compounds of B.P. 1546937 tested” value with malaria (fold as active) was “at least 4 times”.
